Columns and labels:
[1] = test system: HCT116 cells; assay: PARP cleavage assay (Western blotting), HCT116; assay type: cell-based; conditions: 0.5 μM, 6 hours, Western blotting
Text: (§1) Compound 1a had no effect under the same conditions (FIG. 1A). […] Compound 1a, 28a, 47a, 48a, 73a, 39a, 70a, 103a, 89a and 88a had no effect under the same conditions (FIG. 3B-C).

[2] = test system: MDA-MB-231 cells; assay: PARP cleavage assay (Western blotting), MDA-MB-231; assay type: cell-based; conditions: 6 hours
Text: as §1

[3] = test system: HCT116 cancer cells; assay: Cell viability (MTT) assay, HCT116; assay type: cell-based; conditions: Homo sapiens, HCT-116; inhibiting the growth of HCT116 cancer cells, cell viability assay (Table 5)
Procedure: (§2) Cell viability was analyzed by using a colorimetric 3-(4,5-dimethylthiazol-[…]2-yl)-2,5-diphenyletetrazolium Bromide (MTT) assay that determines mitochondrial dehydrogenase activities in the living cells with a colorimetric method. Cells treated with test compounds were incubated with MTT and their effect on the viability of the cells was assayed by the ability of treated cells to reduce the yellow tetrazolium dye MTT to its insoluble formazan, which has a purple color. […]

[4] = test system: MDA-MB-231 cancer cells; assay: Cell viability (MTT) assay, MDA-MB-231; assay type: cell-based; conditions: Homo sapiens; inhibiting the growth of MDA-MB-231 cancer cells, cell viability assay (Table 6)
Procedure: as §2

[5] = test system: HCT116 cancer cells; assay: Apoptosis assay, Annexin V-FITC/propidium iodide flow cytometry; assay type: cell-based; conditions: Homo sapiens, HCT-116, 6 hours, Annexin V-FITC/PI flow cytometry (Table 4)
Procedure: HCT116 cancer cells plated at a density of 1×10^6 per well on six-well plates were treated with different concentration of test compounds for 6 hours, and then the suspension and the adherent cells were collected, stained with Annexin V-FITC for 15 minutes and with propodium iodide for 5 minutes, and analyzed immediately by cytoFLEX Flow Cytometry System (Beckman-Coulter, Miami, Fla., USA) using FITC and PC5.5 (Table 4).

[6] = test system: pBind-RXRa-LBD and Nur77; assay: Mammalian one hybrid assay, Gal4-RXRa-LBD with Nur77; assay type: cell-based; conditions: cotransfection of pBind-RXRa-LBD and Nur77, Dual-Luciferase (FIG. 10)
Procedure: (§3) HEK293T cells were co-transfected with pG5 Luciferase reporter together with the plasmid encoding RXRa-LBD fused with the Gal4 DNA-binding domain and other expression plasmids. After transfection, cells were treated with DMSO or a test compound, and assayed by using the Dual-Luciferase Reporter Assay System (Promega). Transfection efficiency was normalized to Renilla luciferase activity.
(§4) To exclude the possibility that Compound 1 acted on RXRa, Glu453 and Glu456 in the RXRa activation function 2 (AF2) region were substituted with Ala and the resulting mutant, RXRa-LBD/E453,6A, was used.

[7] = test system: Nur77 and pBind-RXRa-LBD-E453,6A; assay: Mammalian one hybrid assay, RXRa-LBD/E453,6A mutant with Nur77; assay type: cell-based; conditions: cells transfected with Nur77 and pBind-RXRa-LBD-E453,6A
Procedure: as §3, §4

[8] = test system: PyMT mammary tumor; assay: MMTV-PyMT mice breast cancer model; assay type: in vivo
Procedure: Female MMTV-PyMT mice of 12 weeks old were randomly divided into two groups (n=7 each), treated with a daily oral dose of test compound for 18 days. Standard histopathological analysis of tumor tissue was performed (see Example A-19). Test compounds were dissolved in DMSO and diluted with normal saline containing 5.0% (V/V) Tween-80 to a final concentration 0.5 mg/ml. Normal saline with DMSO and 5.0% Tween-80 was employed as the vehicle control.
4 μm thick sections were deparaffinized and rehydrated using xylene and a graded series of ethanol (100, 95, 85, 75, 50%), followed by washing in PBS. Antigen retrieval was performed in 10 mM sodium citrate buffer (pH 6.0), which was microwaved at 100° C. for 20 minutes. After rinsed twice in PBS, sections were blocked at room temperature for 1 hour by using 10% normal goat serum, followed by incubation with anti-ki-67, anti-cleaved-caspase-3, overnight (at least 17 hours) at 4° C. Colors were developed with a DAB horseradish peroxidase color development kit.

[9] = test system: Nur77 interaction with Bcl-2; assay: Confocal microscopy colocalization of Nur77 with Bcl-2; assay type: cell-based
[10] = target: T1, Nur77 (Homo sapiens, UniProt P22736); assay: Cellular fractionation and immunostaining: mitochondrial targeting of Nur77; assay type: cell-based; conditions: mitochondria fractionation, 1μM
T1 construct: expressed in transfected cells
Procedure: (§5) For cellular fractionation, cells were lysed in cold buffer A (10 mM HEPES-KOH (pH 7.9), 1.5 mM MgCl2, 10 mM KCl, 0.5 mM dithiothreitol) with a cocktail of proteinase inhibitors on ice for 10 min as described. Cytoplasmic fraction was collected by centrifuging at 6000 rpm for 30 seconds. Pellets containing nuclei were resuspended in cold high-salt buffer C (20 mM HEPES-KOH (pH 7.9), 25% glycerol, 420 mM NaCl, 1.5 mM MgCl2, 0.2 mM EDTA, 0.5 mM dithiothreitol) with a cocktail of proteinase inhibitors on ice for 30 minutes.

[11] = test system: Nur77; assay: as above; assay type: cell-based; conditions: immunostaining
Procedure: as §5

[12] = test system: Nur77 interaction with Bcl-2; assay: Cell-based co-immunoprecipitation of Nur77 and Bcl-2; conditions: Nur77 transfected in HeLa cells
Procedure: Western blotting and co-immunopreciptations (co-IP) were performed. Briefly, cells transfected with or without expression vectors for Nur77 and Bcl-2 were treated with test compounds for 2 hours. The effect of compounds on the interaction of endogenous or transfected Nur77 and Bcl-2 was analyzed by co-immunoprecipitation using appropriate antibodies. Proteins immunoprecipitated from cells by an appropriate anti-Nur77 or anti-Bcl-2 antibody were analyzed by Western blotting.

[13] = test system: mTOR markers p-S6 and p-4EBP1; assay: mTOR inhibition: expression of mTOR markers; assay type: cell-based; conditions: MDA-MB-231 cells, 1 μM, 6 hours

T1 sequence (P22736 whole entry): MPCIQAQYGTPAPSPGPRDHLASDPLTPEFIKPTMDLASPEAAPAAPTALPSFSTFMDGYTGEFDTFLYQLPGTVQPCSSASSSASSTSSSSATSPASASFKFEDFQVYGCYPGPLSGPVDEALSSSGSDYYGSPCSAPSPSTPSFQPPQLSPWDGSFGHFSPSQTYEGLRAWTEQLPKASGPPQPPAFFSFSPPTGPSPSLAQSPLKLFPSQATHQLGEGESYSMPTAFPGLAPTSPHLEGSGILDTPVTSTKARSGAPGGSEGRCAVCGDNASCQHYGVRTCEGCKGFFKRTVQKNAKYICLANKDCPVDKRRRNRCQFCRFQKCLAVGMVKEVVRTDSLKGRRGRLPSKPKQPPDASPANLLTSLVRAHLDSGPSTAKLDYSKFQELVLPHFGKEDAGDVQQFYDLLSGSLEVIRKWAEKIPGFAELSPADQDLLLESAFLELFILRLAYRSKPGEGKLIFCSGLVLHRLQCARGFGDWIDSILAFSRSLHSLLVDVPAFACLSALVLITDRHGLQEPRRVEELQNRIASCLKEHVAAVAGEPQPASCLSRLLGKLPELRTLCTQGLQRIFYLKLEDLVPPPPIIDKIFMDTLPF

FC(F)(F)c1ccc(C(c2c[nH]c3ccccc23)c2c[nH]c3ccccc23)cc1 [Compound 1a, reference compound]
PARP cleavage [1]: no effect | PARP cleavage ([2]; 0.5 μM): no effect | IC50 [3]: ≥ 5000 nM | IC50 [4]: ≥ 5000 nM

Clc1ccc([C+](c2c[nH]c3ccccc23)c2c[nH]c3ccccc23)cc1 [Compound 5, Bis(1H-indol-3-yl)(4-chlorophenyl)methylium methanesulfonate]
IC50 [3]: < 500 nM | IC50 [5]: < 500 nM

COc1ccc([C+](c2c[nH]c3ccccc23)c2c[nH]c3ccccc23)cc1 [Compound 7, Bis(1H-indol-3-yl)(4-methoxyphenyl)methylium methanesulfonate]
IC50 [3]: 500 to 5000 nM | IC50 [5]: 500 to 5000 nM

COC(=O)c1ccc([C+](c2c[nH]c3ccccc23)c2c[nH]c3ccccc23)cc1 [Compound 8, Bis(1H-indol-3-yl)(4-(methoxycarbonyl)phenyl)methylium methanesulfonate]
IC50 [3]: < 500 nM | IC50 [5]: < 500 nM

CC1=C(/C=C/C(C)=C\C=C\C(C)=C\C(=O)O)C(C)(C)CCC1 [Compound 9-cis-RA, 9-cis-RA, reference compound]
reporter transcriptional activity [6]: strongly activate | reporter transcriptional activity [7]: failed to induce the reporter activity

Cn1cc([C+](c2ccc(C(F)(F)F)cc2)c2c[nH]c3ccccc23)c2ccccc21 [Compound 28, (1-Methyl-1H-indol-3-yl)(1H-indol-3-yl)(4-(trifluoromethyl)phenyl)methylium methanesulfonate]
expression levels of mTOR markers p-S6 and p-mTOR in tumor ([8]; 3 mg/kg): markedly reduced | growth of PyMT mammary tumor ([8]; 3 mg/kg daily oral, 18 days): inhibited the growth of PyMT mammary tumor | colocalization of transfected GFP-Nur77 (and GFP-Nur77-LBD) with Bcl-2 [9]: promoted extensive colocalization | PARP cleavage ([2]; 0.5 μM): effectively induced PARP cleavage | PARP cleavage ([2]; 1 μM): effectively induce PARP cleavage | Myc-Nur77 in heavy membrane (HM) fraction [10]: accumulated in the mitochondria-enriched heavy membrane (HM) fraction | Myc-Nur77-LBD colocalization with mitochondria [11]: colocalized extensively with the mitochondria | IC50 [3]: < 500 nM | Nur77 interaction with Bcl-2 (Co-IP) [12]: interacted with Bcl-2 | expression levels of mTOR markers p-S6 and p-4EBP1 [13]: reduced the expression levels | IC50 [4]: < 500 nM

FC(F)(F)Oc1ccc([C+](c2c[nH]c3ccccc23)c2c[nH]c3ccccc23)cc1.[Cl-] [Compound 39, Bis(1H-indol-3-yl)(4-(trifluoromethoxy)phenyl)methylium chloride]
PARP cleavage ([2]; 0.5 μM): effectively induced PARP cleavage | PARP cleavage ([2]; 1 μM): effectively induce PARP cleavage | IC50 [3]: 500 to 5000 nM | expression levels of mTOR markers p-S6 and p-4EBP1 [13]: reduced the expression levels | IC50 [4]: 500 to 5000 nM

CCCn1cc([C+](c2ccc(C(F)(F)F)cc2)c2c[nH]c3ccccc23)c2ccccc21.[Cl-] [Compound 48, (1-Propyl-1H-indol-3-yl)(1H-indol-3-yl)(4-(trifluoromethyl)phenyl)methylium chloride]
PARP cleavage ([2]; 0.5 μM): effectively induced PARP cleavage | PARP cleavage ([2]; 1 μM): effectively induce PARP cleavage | IC50 [3]: < 500 nM | expression levels of mTOR markers p-S6 and p-4EBP1 [13]: reduced the expression levels | IC50 [4]: < 500 nM

Fc1cccc2c([C+](c3ccc(C(F)(F)F)cc3)c3c[nH]c4ccccc34)c[nH]c12.[Cl-] [Compound 71, (7-Fluoro-1H-indol-3-yl)(1H-indol-3-yl)(4-(trifluoromethyl)phenyl)methylium chloride]
PARP cleavage ([2]; 1 μM): effectively induce PARP cleavage | IC50 [3]: < 500 nM | expression levels of mTOR markers p-S6 and p-4EBP1 [13]: reduced the expression levels | IC50 [4]: < 500 nM

Fc1ccc2[nH]cc([C+](c3ccc(C(F)(F)F)cc3)c3c[nH]c4ccccc34)c2c1.[Cl-] [Compound 73, (5-Fluoro-1H-indol-3-yl)(1H-indol-3-yl)(4-(trifluoromethyl)phenyl)methylium chloride]
PARP cleavage ([2]; 0.5 μM): effectively induced PARP cleavage | PARP cleavage ([2]; 1 μM): effectively induce PARP cleavage | IC50 [3]: < 500 nM | expression levels of mTOR markers p-S6 and p-4EBP1 [13]: reduced the expression levels | IC50 [4]: < 500 nM

O=C(O)c1ccc([C+](c2c[nH]c3ccccc23)c2c[nH]c3ccccc23)cc1 [Compound 82, Bis(1H-indol-3-yl)(4-carboxyphenyl)methylium methanesulfonate]
IC50 [3]: 500 to 5000 nM | IC50 [5]: 500 to 5000 nM
